Experimental data from US11059852B2, “Ergostenol glycoside derivative” (ST PHARM CO., LTD., priority 2017, dated 2021).

Legend:
Type in all cases: cell-based
[1] = tested on: CCL17 expression in HaCaT cells; assay: CCL17 gene expression (RT-PCR) in HaCaT cells induced by TNF-α and/or IFN-γ; conditions: HaCaT cells, 2.5, 5, 10 and 20 μg/mL for one hour, then TNF-α, IFN-γ, or both, 18 hours; RNA level, FIG. 2
Method: (§1) 1×10^6 HaCaT cells were moved into a 6-well microplate, cultured in DMEM containing 10% (v/v) FBS for 12 hours, washed with PBS, and then treated in 2 mL of serum free media with ergostenol at each concentration of 2.5, 5, 10 and 20 μg/mL for one hour. After that, the cells were treated with inflammation-inducing molecules, i.e., TNF-α, IFN-γ, or TNF-α and IFN-γ, and then cultured for 18 hours. To identify a change in CCL17 and CCL22 expressions at an RNA level, RNAs were isolated with Trizol reagent kit (Invitrogen, Gaithersburg, Md.) according to a manufacturer's manual. A reverse transcription was performed with the isolated RNAs as a template to obtain cDNAs. A reverse transcription buffer solution (5 mM MgCl2, 1 mM dNTP, 2.5 U/μL reverse transcriptase, and 2.5 μM oligo (dT) 15 as a primer (omniscript RTkit, Qiagen)), 0.5 U of RNase inhibiter, 2.5 μM of oligo (dT) and 2.5 U of reverse transcriptase were added into 2 μg of […], and subjected to reaction at 37° C., such that the cDNAs were obtained. To quantify the obtained cDNAs, PCR was performed with the primers of a following table 1, after which the amplified DNAs were identified with 1% agarose gel.

[2] = tested on: CCL17 expression in HaCaT cells; assay: CCL17 protein in media (ELISA) of HaCaT cells induced by TNF-α and/or IFN-γ; conditions: HaCaT cells, 2.5, 5, 10 and 20 μg/mL for one hour, then TNF-α, IFN-γ, or both, 18 hours, FIG. 3
Method: (§2) Also, to figure out an effect of ergostenol at a protein level, HaCaT cells were treated with ergostenol at a concentration of 2.5, 5, 10 and 20 μg/mL for one hour, then treated with molecules related to inflammation induction, i.e., TNF-α, IFN-γ, or TNF-α and IFN-γ, and then cultured for 18 hours. With regard to CCL17 and CCL22, the amount of proteins present in media was identified with an ELISA kit (R&D Systems, Minneapolis, Minn., USA). Captured antibodies (anti-CCL17 antibody and anti-CCL22 antibody) at 2 μg/mL were inserted into a 96-well plate in an amount of 50 μL, respectively, subjected to coating for two hours, and then subjected to blocking with PBS containing 1% BSA for one hour. Then, a collected sample was inserted into each well in an amount of 100 μL, respectively, and subjected to reaction for two hours. The cells were washed three times with PBS-T, after which 50 μL of detector antibodies (anti-CCL17 antibody and anti-CCL22 antibody) were inserted into each well at 100 ng/well, and subjected to reaction for two hours. […] The cells were fully washed with PBS-T, after which a substrate solution (TMB) was added thereto, such that absorbance thereof was measured at 450 nm.

[3] = tested on: CCL22 expression in HaCaT cells; assay: CCL22 gene expression (RT-PCR) in HaCaT cells induced by TNF-α and/or IFN-γ; conditions: HaCaT cells, 2.5, 5, 10 and 20 μg/mL for one hour, then TNF-α, IFN-γ, or both, 18 hours; RNA level, FIG. 2
Method: as §1

[4] = tested on: CCL22 expression in HaCaT cells; assay: CCL22 protein in media (ELISA) of HaCaT cells induced by TNF-α and/or IFN-γ; conditions: HaCaT cells, 2.5, 5, 10 and 20 μg/mL for one hour, then TNF-α, IFN-γ, or both, 18 hours, FIG. 3
Method: as §2

Ergostenol
decrease: level of CCL17 gene expression [1] | level of CCL17 protein expression [2] | level of CCL22 gene expression [3] | level of CCL22 protein expression [4]
